From patent publication US9833497B2, “Human originated EGF domain proteins and use of the same” (CHENGDU SOURCEBIO LIMITED-LIABILITY COMPANY, priority 2013, dated 2017)

Legend:
Type in all cases: cell-based
E. coli DH5α = experiment: Antibacterial activity: MIC and growth curve against E. coli DH5α in 96-well plate; settings: minimal inhibitory concentration against E. coli DH5α; 96-well plate, 5×10^5 CFU/mL, 37° C., judged after 8 h
Outline: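 Log-phase bacteria (OD600 ~0.5) resuspended in LB at 5×10^5 CFU/mL, exposed to recombinant protein at 50, 25, 12.5 μg/mL final in triplicate, 37 °C shaking at 175 rpm. OD600 read every 30 min; MIC is lowest concentration showing no growth.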

E. coli BL21 = experiment: MIC against Gram-negative bacteria: E. coli BL21; settings: 5×10^5 CFU/mL
Outline: (§1)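 Two-fold serial dilutions of each purified human EGF domain protein, three replicate wells per level, were combined with bacteria at a final 5×10^5 CFU/mL in LB. Cultures were shaken at 175 rpm, 37° C. The MIC was taken as the minimum concentration preventing growth.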

Pseudomonas aeruginosa = experiment: MIC against Gram-negative bacteria: Pseudomonas aeruginosa; settings: 5×10^5 CFU/mL
Outline: as §1

Klebsiella pneumonia = experiment: MIC against Gram-negative bacteria: Klebsiella pneumonia; settings: 5×10^5 CFU/mL
Outline: as §1

Enterobacter cloacae = experiment: MIC against Gram-negative bacteria: Enterobacter cloacae; settings: 5×10^5 CFU/mL
Outline: as §1

Aeromonas hydrophila = experiment: MIC against Gram-negative bacteria: Aeromonas hydrophila; settings: 5×10^5 CFU/mL
Outline: as §1

Citrobacter diversus = experiment: MIC against Gram-negative bacteria: Citrobacter diversus; settings: 5×10^5 CFU/mL
Outline: as §1

Moraxella catarrhalis = experiment: MIC against Gram-negative bacteria: Moraxella catarrhalis; settings: 5×10^5 CFU/mL
Outline: as §1

Proteus mirabilis = experiment: MIC against Gram-negative bacteria: Proteus mirabilis; settings: 5×10^5 CFU/mL
Outline: as §1

Proteus vulgaris = experiment: MIC against Gram-negative bacteria: Proteus vulgaris; settings: 5×10^5 CFU/mL
Outline: as §1

Serratia marcescens = experiment: MIC against Gram-negative bacteria: Serratia marcescens; settings: 5×10^5 CFU/mL
Outline: as §1

[1] = E. coli BL21, 10 h cultivation at 37° C.
[2] = 10 h cultivation at 37° C., two-fold serial dilution

Row | Substance | MIC (E. coli DH5α) [µg/mL] | MIC (μg/mL) E. coli BL21 (E. coli BL21; [1]) [µg/mL] | MIC (μg/mL) P. aeruginosa (Pseudomonas aeruginosa; 10 h cultivation at 37° C.) [µg/mL] | MIC (μg/mL) K. pneumonia (Klebsiella pneumonia; 10 h cultivation at 37° C.) [µg/mL] | MIC (μg/mL) E. cloacae (Enterobacter cloacae; 10 h cultivation at 37° C.) [µg/mL] | MIC (μg/mL) A. hydrophila (Aeromonas hydrophila; 10 h cultivation at 37° C.) [µg/mL] | MIC (μg/mL) C. diversus (Citrobacter diversus; 10 h cultivation at 37° C.) [µg/mL] | MIC (μg/mL) M. catarrhalis (Moraxella catarrhalis; 10 h cultivation at 37° C.) [µg/mL] | MIC (μg/mL) P. mirabilis (Proteus mirabilis; 10 h cultivation at 37° C.) [µg/mL] | MIC (μg/mL) P. vulgaris (Proteus vulgaris; 10 h cultivation at 37° C.) [µg/mL] | MIC (μg/mL) S. marcescens (Serratia marcescens; 10 h cultivation at 37° C.) [µg/mL] | further results
1 | PRT268 (SFKCRCDSGFALDSEERNCTDIDE; listed as Homo sapiens) | 12.5 | 25 | 12.5 | 25 | 50 | 25 | 12.5 | 25 | 50 | 12.5 | 12.5 | 
2 | PRT617 (CNCNSKGSLSARCDNSGRCSCKPGVTGARCDRCLPGFHMLTDAGCTQ; listed as Homo sapiens) | 25 |  |  |  |  |  |  |  |  |  |  | MIC E. coli BL21 (E. coli BL21; 96-well plate, 37° C., 10 h): 12.5 µg/mL; MIC P. aeruginosa (Pseudomonas aeruginosa; 96-well plate, 37° C., 10 h): 25 µg/mL; MIC K. pneumonia (Klebsiella pneumonia; 96-well plate, 37° C., 10 h): 12.5 µg/mL; MIC E. cloacae (Enterobacter cloacae; 96-well plate, 37° C., 10 h): 25 µg/mL; MIC A. hydrophila (Aeromonas hydrophila; 96-well plate, 37° C., 10 h): 12.5 µg/mL; MIC C. diversus (Citrobacter diversus; 96-well plate, 37° C., 10 h): 25 µg/mL; MIC M. catarrhalis (Moraxella catarrhalis; 96-well plate, 37° C., 10 h): 12.5 µg/mL; MIC P. mirabilis (Proteus mirabilis; 96-well plate, 37° C., 10 h): 25 µg/mL; MIC P. vulgaris (Proteus vulgaris; 96-well plate, 37° C., 10 h): 12.5 µg/mL; MIC S. marcescens (Serratia marcescens; 96-well plate, 37° C., 10 h): 25 µg/mL
3 | PRT1333 (PIPECAALLCPENSRCSPSTEDENKLECKCLPNYRGDGKYCD; listed as Homo sapiens) | 25 |  |  |  |  |  |  |  |  |  |  | MIC against E. coli BL21 (E. coli BL21; E. coli BL21, 96-well plate, 37° C., 10 h): 12.5 µg/mL; MIC against P. aeruginosa (Pseudomonas aeruginosa; Pseudomonas aeruginosa, 96-well plate, 37° C., 10 h): 25 µg/mL; MIC against K. pneumonia (Klebsiella pneumonia; Klebsiella pneumonia, 96-well plate, 37° C., 10 h): 25 µg/mL; MIC against E. cloacae (Enterobacter cloacae; Enterobacter cloacae, 96-well plate, 37° C., 10 h): 12.5 µg/mL; MIC against A. hydrophila (Aeromonas hydrophila; Aeromonas hydrophila, 96-well plate, 37° C., 10 h): 25 µg/mL; MIC against C. diversus (Citrobacter diversus; Citrobacter diversus, 96-well plate, 37° C., 10 h): 12.5 µg/mL; MIC against M. catarrhalis (Moraxella catarrhalis; Moraxella catarrhalis, 96-well plate, 37° C., 10 h): 25 µg/mL; MIC against P. mirabilis (Proteus mirabilis; Proteus mirabilis, 96-well plate, 37° C., 10 h): 12.5 µg/mL; MIC against P. vulgaris (Proteus vulgaris; Proteus vulgaris, 96-well plate, 37° C., 10 h): 25 µg/mL; MIC against S. marcescens (Serratia marcescens; Serratia marcescens, 96-well plate, 37° C., 10 h): 12.5 µg/mL
4 | PRT1102 (TIGSCGKNSCQHGGICHQDPIYPVCICPAGYAGRFCE; listed as Homo sapiens) | 12.5 |  |  |  |  |  |  |  |  |  |  | MIC E. coli BL21 (E. coli BL21; [2]): 12.5 µg/mL; MIC P. aeruginosa (Pseudomonas aeruginosa; [2]): 12.5 µg/mL; MIC K. pneumonia (Klebsiella pneumonia; [2]): 12.5 µg/mL; MIC E. cloacae (Enterobacter cloacae; [2]): 12.5 µg/mL; MIC A. hydrophila (Aeromonas hydrophila; [2]): 12.5 µg/mL; MIC C. diversus (Citrobacter diversus; [2]): 12.5 µg/mL; MIC M. catarrhalis (Moraxella catarrhalis; [2]): 12.5 µg/mL; MIC P. mirabilis (Proteus mirabilis; [2]): 12.5 µg/mL; MIC P. vulgaris (Proteus vulgaris; [2]): 12.5 µg/mL; MIC S. marcescens (Serratia marcescens; [2]): 25 µg/mL
5 | PRT167 (TPNPCENDGVCTDIGGDFRCRCPAGFIDKTC; listed as Homo sapiens) | 12.5 | 50 | 12.5 | 50 | 12.5 | 12.5 | 25 | 12.5 | 25 | 25 | 12.5 | 
6 | PRT241 (DTDECQIAGVCQQMCVNYVGGFECYCSEGHELEADGISCS; listed as Homo sapiens) | 12.5 | 12.5 | 12.5 | 12.5 | 12.5 | 12.5 | 12.5 | 25 | 12.5 | 25 | 50 | 
